Holding throughout (assay): DTP human tumour cell line panel, 48 h
Assay [1] concerns HT29 colon.
Assay [2] has as its system ACHN renal.
Assay [3] concerns MOLT-4 leukemia.
The subject of assay [4] is NCI-H23 lung.
In assay [5] the test system is HCT-15 colon.
Assay [6] deals with OVCAR-3 ovarian.
The subject of assay [7] is SK-OV-3 ovarian.
Assay [8] has as its system COLO 205 colon.
For assay [9], the system named is SF-268 CNS.
Assay [10] has as its system SK-MEL-2 melanoma.

This passage reports GI50 and TGI results from PubChem BioAssay (NCI).

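All cell lines were grown in 96-well plates and treated with compound for 48 hours. Here, GI50 denotes the concentration required for 50% inhibition of growth. TGI: concentration producing complete growth inhibition.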

By GI50 is commonly meant the concentration at which growth is held to half of that of the control. A word on the TGI: it is the concentration giving total growth inhibition. A high value points to lower sensitivity of the cells.

Consider `COc1cc2cc(Oc3ccc(NC(=O)c4ccc(Cl)c(Cl)c4)cc3)c(C)nc2cc1OC`, for which the GI50 in assay [1] was 7.89 µM; in assay [2], 8.63 µM; in assay [3], 6.12 µM; in assay [4] it was 6.68 µM; in assay [5], 7.94 µM; in assay [6], 9.34 µM. The GI50 is over 100 µM in assay [7], 6.44 µM in assay [8], over 100 µM in assay [9] and over 100 µM in assay [10]. Also, the TGI in [1], in [2], in [3], in [4], in assay [5] and in assay [6] was over 100 µM in each case. Further, the total growth inhibition concentration (TGI) in [7], in [8], in assay [9] and in assay [10] was over 100 µM throughout.
With `O=C(O)c1cc(CCc2cc(O)ccc2O)ccc1O`, the concentration for total growth inhibition (TGI) in assay [1], in assay [2], in assay [3], in assay [4], in [5] and in assay [6] was over 100 µM in each case. Besides, the TGI in [7], in [8], in assay [9] and in [10] was over 100 µM in each case.
Regarding `COc1ccc(/C=C(\C)[N+](=O)[O-])cc1OC`, the GI50 was 2.2 µM in [1]; 1.69 µM in assay [2]; 3.86 µM in assay [3]; 2.6 µM in [4]; 1.4 µM in assay [5]; 1.87 µM in assay [6]. The GI50 in assay [7] is 13.9 µM; in assay [8], 2.23 µM; in assay [9], 2.26 µM; in assay [10] it was 1.98 µM. Further, the TGI came out at 4.43 µM in assay [1]; 3.16 µM in assay [2]; 9.52 µM in [3]; 7.13 µM in assay [4]; 3.54 µM in assay [5]; 3.29 µM in [6]. Besides, the TGI in assay [7] was found to be 27.4 µM; in [8] it was 4.46 µM; in [9], 5.46 µM; in assay [10], 3.83 µM.
`Oc1cc(-n2cccn2)c(O)cc1-n1cccn1`: the TGI came out at 56.2 µM in assay [1]; 37.4 µM in assay [2]; 61.8 µM in [3]; 68.4 µM in [4]; 51.6 µM in assay [5]; 40 µM in assay [6]. Further, the TGI in assay [7] was over 100 µM; in assay [8], 37.9 µM; in assay [9], over 82.5 µM; in assay [10], over 100 µM.
For the compound `Cc1cc(C)c(C2CNCc3cc4c(cc32)CNCC4c2c(C)cc(C)cc2C)c(C)c1` (centres undefined), the GI50 in assay [1] was 2.75 µg/mL; in assay [2], 3.76 µg/mL; in [3], 2.95 µg/mL; in [4], 15.9 µg/mL; in [5] it was 4.13 µg/mL; in [6], 1.91 µg/mL. Also, the GI50 is 10.2 µg/mL in [7], 2.63 µg/mL in assay [8], 3.17 µg/mL in assay [9] and 2.92 µg/mL in assay [10]. In addition, the concentration for total growth inhibition (TGI) in [1] was 8.35 µg/mL; in [2] it was 13.4 µg/mL; in assay [3], 8.55 µg/mL; in assay [4], 30.4 µg/mL; in [5], 14.2 µg/mL; in assay [6] it was 4.27 µg/mL. Moreover, the TGI in assay [7] is 21.8 µg/mL; in [8], 7.49 µg/mL; in [9] it was 9.96 µg/mL; in assay [10], 7.4 µg/mL.
For `COc1ccc2c(-c3ccnc(Nc4cccc(OC(F)(F)F)c4)n3)cnn2n1`, the GI50 is 0.912 µM in [1]; 1.8 µM in assay [2]; 2.23 µM in assay [3]; 1.2 µM in assay [4]; 1.03 µM in assay [5]; 0.661 µM in [6]. In addition, the GI50 was 1.19 µM in assay [7], 1.3 µM in [8], 1.53 µM in assay [9] and 1.39 µM in assay [10]. Moreover, the TGI in assay [1] was 3.06 µM; in [2], over 25 µM; in assay [3], over 25 µM; in [4] it was 7.41 µM; in [5] it was over 23 µM; in assay [6], 1.68 µM. The TGI in assay [7] was 6.1 µM; in assay [8], over 19.9 µM; in assay [9], 6.53 µM; in assay [10], 17.1 µM.
With `Cc1[nH]c(-c2cc(N)ccc2Cl)c2c1C(=O)CCCC2`, the GI50 was 2.7 µM in assay [1]; 3.42 µM in [2]; 8.32 µM in assay [3]; 5.06 µM in assay [4]; 3.3 µM in [5]; 3.62 µM in [6]. For the same compound, the GI50 in [7] is 3.56 µM; in [8] it was 3.91 µM; in assay [9], 7.99 µM; in assay [10], 7.65 µM. The TGI in assay [1] was over 100 µM; in assay [2], over 100 µM; in [3], over 100 µM; in assay [4], 64.6 µM; in assay [5], over 100 µM; in [6], 32.5 µM. Moreover, the TGI was 36.6 µM in assay [7], over 100 µM in assay [8], over 100 µM in assay [9] and 60.7 µM in [10].
Consider `Oc1c(-c2cc(C(F)(F)F)[nH]n2)cc(Cl)c(OCc2ccc(Cl)cc2)c1-c1ccc(Cl)c(C(F)(F)F)c1`, for which the GI50 in assay [1] is 1.4 µM; in [2] it was 0.593 µM; in assay [3], 0.903 µM; in assay [4], 0.265 µM; in assay [5] it was 0.153 µM; in assay [6], 0.315 µM. The GI50 is 1.54 µM in [7], 0.867 µM in assay [8], 0.18 µM in [9] and 0.36 µM in assay [10]. The TGI is 5.83 µM in assay [1]; 4.86 µM in [2]; 3.2 µM in assay [3]; 4.06 µM in assay [4]; 0.693 µM in assay [5]; 5.5 µM in assay [6]. The TGI in assay [7] was found to be 4.66 µM; in assay [8] it was 1.79 µM; in assay [9] it was 4.14 µM; in assay [10], 2.35 µM.
`COc1cc(C(=O)c2cc(C)c3[nH]c4ccc(O)cc4c3c2C)cc(OC)c1OC`: the GI50 in assay [1] was 0.0276 µM; in [2], under 0.0128 µM; in [3], 0.0424 µM; in assay [4], 0.0335 µM; in assay [5] it was 0.0196 µM; in assay [6] it was under 0.01 µM. Moreover, the GI50 in [7] was 0.267 µM; in assay [8] it was 0.0298 µM; in assay [9], 0.0741 µM; in assay [10], 0.457 µM. In addition, the TGI is over 100 µM in [2]; over 100 µM in assay [3]; over 40 µM in assay [4]; over 100 µM in [5]; 2.17 µM in assay [6]; 98.6 µM in [7]. Besides, the results for the TGI in assay [8], in assay [9] and in [10] were 0.11 µM, over 100 µM and over 100 µM, respectively.
With `Clc1ccc(C2ON=C(c3ccccc3)N2C23CC4CC(CC(C4)C2)C3)cc1` (centres undefined), the TGI in assay [1], in assay [2], in [3], in assay [4], in assay [5] and in assay [6] was over 10 µM throughout. Moreover, the TGI in [7], in [8], in [9] and in assay [10] was over 10 µM each time.
For the compound `CCc1c(C)nc2sc3c(N)ncnc3c2c1C`, the GI50 in [1], in [2], in assay [3], in assay [4], in assay [5] and in assay [6] was over 25 µM throughout. Moreover, the GI50 in assay [7], in assay [8], in assay [9] and in assay [10] was over 25 µM in each case. Also, the TGI in assay [1], in [2], in assay [3], in assay [4], in assay [5] and in [6] was over 25 µM each time. The TGI in [7], in [8], in assay [9] and in assay [10] was over 25 µM each time.
Turning to `CC1=C(CC2C(=O)N(c3ccccc3)S(=O)(=O)NC2C)C(=O)N(c2ccccc2)S(=O)(=O)N1C` (centres undefined), the TGI in assay [1], in assay [2], in [3], in assay [4], in [5] and in [6] was over 100 µM throughout. Moreover, the TGI in assay [7], in [8], in assay [9] and in [10] was over 100 µM throughout.
Take `COc1ccc(Nc2ccnc(N3CCN(c4ccnc5cc(Cl)ccc45)CC3)n2)cc1`: the GI50 is 0.542 µM in assay [1]; 0.955 µM in [2]; 1.56 µM in assay [3]; 1.65 µM in assay [4]; 0.83 µM in assay [5]; 0.729 µM in assay [6]. In addition, the GI50 is 2.62 µM in assay [7], 1.38 µM in [8], 2.31 µM in assay [9] and 1.03 µM in [10]. In addition, the TGI in [1] is 4.92 µM; in [2] it was over 24.5 µM; in assay [3] it was 4.37 µM; in assay [4] it was 9.4 µM; in [5], over 100 µM; in assay [6], 15.4 µM. For the same compound, the TGI is over 100 µM in assay [7], 3.8 µM in assay [8], over 100 µM in assay [9] and 3.27 µM in [10].
